Assay results as given in ChEMBL document CHEMBL1127125, “Synthesis and testing of substituted phenylthioribose analogs against Klebsiella pneumoniae” (Bioorg Med Chem Lett, 1993).
In brackets after ≈: the same amount, converted by molar mass. One block for each compound: values may come before it.

Legend:
Klebsiella pneumoniae [1] = experiment: Minimum inhibitory concentration of compound for its inhibitory activity against Klebsiella pneumoniae growth at 2.60 ug/mL; assay type: functional
Klebsiella pneumoniae [2] = experiment: Compound was tested for its ability to inhibit the growth of a clinical strain of Klebsiella pneumoniae at 0.01 ng/mL; assay type: functional, organism-based
Klebsiella pneumoniae [3] = experiment: Concentration required to inhibit the growth of a clinical strain of Klebsiella pneumoniae by 50%; assay type: functional, organism-based
Klebsiella pneumoniae [4] = experiment: Minimum inhibitory concentration of compound for its inhibitory activity against Klebsiella pneumoniae growth at 0.002 ug/mL; assay type: functional
Klebsiella pneumoniae [5] = experiment: Minimum inhibitory concentration of compound for its inhibitory activity against Klebsiella pneumoniae growth at 20.7 ug/mL; assay type: functional
Plasmodium falciparum = experiment: Inhibition of Plasmodium falciparum; assay type: functional, organism-based
[6] = Compound was tested for its ability to inhibit the growth of a clinical strain Ochromonas malhamensis; assay type: functional
Klebsiella pneumoniae [7] = experiment: Compound was tested for its ability to inhibit the growth of a clinical strain of Klebsiella pneumoniae; assay type: functional, organism-based
Klebsiella pneumoniae [8] = experiment: Minimum inhibitory concentration of compound for its inhibitory activity against Klebsiella pneumoniae growth at 2.4 ug/mL; assay type: functional

MIC (Klebsiella pneumoniae [5]): 75 µM (≈ 20.8 µg/mL)
SMILES: OC1O[C@H](CSc2ccc(Cl)cc2)[C@@H](O)[C@H]1O (stereo partly specified)
IC50 (Klebsiella pneumoniae [2]): 500 nM

MIC (Klebsiella pneumoniae [8]): 7.5 µM (≈ 2.41 µg/mL)
SMILES: OC1O[C@H](CSc2ccc(Br)cc2)[C@@H](O)[C@H]1O (stereo partly specified)
IC50 (Klebsiella pneumoniae [2]): 375 nM

Second part, the compound before the results:

SMILES: OC1O[C@H](CSc2ccc(F)cc2)[C@@H](O)[C@H]1O (stereo partly specified)
MIC (Klebsiella pneumoniae [1]): 10 µM (≈ 2.6 µg/mL)
IC50 (Klebsiella pneumoniae [2]): 0.05 nM

SMILES: OC1O[C@H](CSc2ccc(C(F)(F)F)cc2)[C@@H](O)[C@H]1O (stereo partly specified)
IC50 (Klebsiella pneumoniae [3]): 40 nM

SMILES: OC1O[C@H](CSc2ccc(I)cc2)[C@@H](O)[C@H]1O (stereo partly specified)
MIC (Klebsiella pneumoniae [4]): 5 nM (≈ 0.00184 µg/mL)

SMILES: CCSC[C@H]1OC(O)[C@H](O)[C@@H]1O (stereo partly specified)
IC50 (Plasmodium falciparum): ~300 µM
IC50 [6]: ~75 µM
IC50 (Klebsiella pneumoniae [7]): ~15 mM
